Assays:
Caco-2 cells = assay type: in vitro ADME; settings: human, Caco-2, 4 h
Description: An in vitro digestion coupled with intestinal culture model was developed to mimic the in vivo absorption of carotenoids. It is important to note that absorption as determined by in vitro digestion is highly correlated with data derived by sampling small intestinal luminal contents from human subjects fed carotenoid rich vegetables and bioavailability data from published human studies.
The interactions among beta-carotene (B), lutein (L), and astaxanthin (A) or astaxanthin ester (AE) were examined using the coupled simulated digestion/Caco-2 cell model. Cellular carotenoids after four hour incubation with micelles generated during simulated digestion of carotenoid-rich oil are presented in Table 2 below.
Simulated digestion: Non-fat yogurt (2.7 g) was homogenized in 10 mL 120 mM salt solution. The mixture was transferred to 50 mL glass test tube. Carotenoid rich oil was carefully added for each reaction (6 replicates per test oil), and total volume of oil was adjusted to 300 μL using soybean oil. The procedure for the simulated digestion followed the standard protocol (See Failla M L., Chitchumroonchokchai C. (2005) In vitro models as tools for screening the relative bioavailabilities of provitamin A carotenoids in foods. HarvestPlus Technical Monograph Series 3. 32 p. www.harvestplus.org/pdfs/tech03.pdf), except that reactions contained pancreatic enzymes and bile extract. […] After completing gastric and small intestinal digestion, an aliquot (9 ml.) of digesta was centrifuged at 12,000×g, 4° C. for 45 min. to isolate aqueous fraction containing micellar carotenoids from residual undigested materials. The aqueous fraction was passed through syringe filter (0.22 μm) to determine carotenoids that partitioned into either aqueous or micellar phase. Aliquots of digesta and aqueous fraction were stored at −20° C. for a maximum of one week before extraction. Beta-carotene and lutein was quantified according to Chitchumrronchokchai et al. (See Chitchumroonchokchai C., Schwartz S J., Failla M L. Assessment of lutein bioavailability from meals and supplement using simulated digestion and Caco-2 human intestinal cells. J Nutr. 2004; 134:2280-2286), and astaxanthin was measured as described in Lin W C et al. (Lin W C, Chien J T, Chen B H. Determination of carotenoids in spear shrimp shells (Parapenaeopsis hardwickii) by liquid chromatography. J Agric Food Chem. 2005 Jun. 29; 53(13):5144-9).
Cell uptake of carotenoids from micelles generated during digestion of oil enriched with individual carotenoids or mixtures of carotenoids: Caco-2 cells (HTB37; passages 25-28) obtained from ATCC ([…]) at passage 19 were maintained in 6-well plastic dishes. The cells were cultured in complete DMEM plus 15% heat inactivated FBS during replication phase. […]

[1] = test system: Caco-2 human intestinal cells; assay type: in vitro ADME; settings: Caco-2, 18 h
Protocol: The interactions among beta-carotene (B), lutein (L), and astaxanthin (A) were examined using a Caco-2 cell model.
Caco-2 human intestinal cells were grown and maintained on transwell inserts (3.0 μm pores) according to protocol in Failla M L., Chitchumroonchokchai C. (2005) In vitro models as tools for screening the relative bioavailabilities of provitamin A carotenoids in foods. HarvestPlus Technical Monograph Series 3. 32 p. www.harvestplus.org/pdfs/tech03.pdf. Cultures were used at 21 days post-confluency (dpc).
The stock synthetic micelles (SM) containing either β-carotene (B), lutein (L), or astaxanthin (A) was prepared as described by Chitchumroonchokchai et al. (2004).
Treated cells were incubated in humidified environment of 95% air, 5% CO2 at 37° C. for 18 hours before spent medium in apical chamber (AP) and basolateral medium (BL) were collected. All samples were frozen at −80° C. under nitrogen until analysis. Carotenoid analysis in media and cells were quantified as described by Chitchumroonchokchai (See Chitchumroonchokchai C., Schwartz S J., Failla M L. Assessment of lutein bioavailability from meals and supplement using simulated digestion and Caco-2 human intestinal cells. J Nutr. 2004; 134:2280-2286). Protein content of cells was determined by the bicinchoninic acid assay (Pierce—www.piercenet.com/files/1296 as8.pdf). […]

| Compound | % Carotenoid Cellular Uptake, B (Caco-2 cells) | % Increase in Carotenoid Cellular Uptake, B (Caco-2 cells) | % Increase in Carotenoid Cellular Uptake Compared to Single Carotenoid, B [1] | % Carotenoid Cellular Uptake, L (Caco-2 cells) | % Increase in Carotenoid Cellular Uptake, L (Caco-2 cells) | % Increase in Carotenoid Cellular Uptake Compared to Single Carotenoid, L [1] |
| --- | --- | --- | --- | --- | --- | --- |
| CC1=C(/C=C/C(C)=C/C=C/C(C)=C/C=C/C=C(C)/C=C/C=C(C)/C=C/C2=C(C)CCCC2(C)C)C(C)(C)CCC1 [Beta-carotene, beta-carotene] | 5.70% | 0.00% | 0.00% |  |  |  |
| CC1=C[C@H](O)CC(C)(C)[C@H]1/C=C/C(C)=C/C=C/C(C)=C/C=C/C=C(C)/C=C/C=C(C)/C=C/C1=C(C)C[C@@H](O)CC1(C)C [Lutein, lutein] |  |  |  | 6.02% | 0.00% | 0.00% |

From patent US9149056B2, “Compositions and methods relating to carotenoids” (The Iams Company, priority 2011, dated 2015)
